Read-outs that look alike come from different tables or passages of the source. Bounds are passed on as bounds.

Eight compounds from article PMC12186339, “Assessment of the structure–activity relationship of analogs of the Naegleria fowleri enolase inhibitor HEX” (RSC Medicinal Chemistry, 2025) can be followed below.

Data set [1] has as its system N. fowleri strain TY (ATCC 30107) trophozoites. In words: In vitro growth inhibition of N. fowleri trophozoites (CellTiter-Glo). The note with it: for EC50: Naegleria fowleri, read-out: N. fowleri EC50. In kind it is cell-based, Naegleria fowleri. Here is the method:
N. fowleri strain TY (ATCC 30107) trophozoites were routinely cultured in T-75 TC-treated flasks at 37 °C and 5% CO2 in media that has been previously described.[10] All compounds described were reconstituted in DMSO for testing, with final concentrations kept at <1% in the assays. To test the inhibitory activity of the compounds on cell growth, 1 × 10^4 cells per mL were seeded in white 96-well plates with 100 μM compound. Cells and compound were incubated at 37 °C and 5% CO2 for 48 hours. CellTiter-Glo reagent (Promega G7570) was then added to each well and luminescence was read using a BioTek Synergy H1 Microplate Reader. […] All reactions were performed in technical triplicate. If growth inhibition was <50% at the concentration tested, EC50 was reported to be above that value.
On the technique in general: ATP-based viability assays read luminescence as a measure of living cells.

The nature of data set [2]: Human cell growth inhibition (CellTiter Blue). The note with it: HEK-293, 48 hours, read-out: Human cell line CC50. In kind it is cell-based. Here is the method:
To determine the amount of agent required to inhibit human cell growth 50% (the CC50 value), human embryonic kidney cells (ATCC HEK-293) were seeded at 5 × 10^4 cells per well in 100 μL of Dulbecco's modified Eagle's medium in tissue culture-treated clear bottom black 96 well plates (Gibco). Cells were incubated with compounds for 48 hours, followed by addition of CellTiter Blue (Promega, Madison, WI, USA) After a 3 hour incubation and equilibration for 15 minutes at room temperature, fluorescence (Ex: 560 nm, EM: 590 nm) was measured and the percentage of growth inhibition was calculated using untreated controls.
(Resazurin is reduced to fluorescent resorufin, in cell work by metabolically active cells.)

Data set [3] deals with NfENO (Naegleria fowleri, UniProt A0A6A5BXC3). As to the kind of experiment: NfENO pyruvate kinase/lactate dehydrogenase-coupled activity assay. In kind it is biochemical. The settings on record: at 100 μM. The procedure:
Using the full-length protein (NF0118810, AmoebaDB, https://amoebadb.org/amoeba/app/), an E. coli codon-optimized construct was designed to express a truncated version of NfENO (residues 44–512) to improve solubility.[10]NfENO was heterologously expressed in BL2(DE3)R3 Rosetta cells and expression induced with 0.5 mM isopropyl-β-D-1-thiogalactopyranoside (IPTG) overnight at 37 °C. Cells were lysed using a lysozyme and 10% Triton X-100 based lysis buffer and purified with Ni-NTA agarose beads (Qiagen). Activity assays were conducted in triplicate using a pyruvate kinase/lactate dehydrogenase-coupled assay. Approximately 75 nM of NfENO in assay buffer (100 mM HEPES, pH 8.5, 3.3 mM MgSO4, 120 mM KCl, 1.75 mM ADP, 1 U pyruvate kinase/lactate dehydrogenase, and 0.4 mM NADH) was added to black 96-well plates. For assays in the presence of inhibitor, compounds were resuspended in DMSO, added to the wells, and incubated with enzyme in assay buffer for 15 minutes at room temperature. DMSO was included as a vehicle control. Assays were initiated by addition of substrate solution (3.75 mM 2-PG) and fluorescence emission at 460 nm after excitation at 360 nm was monitored every 20 seconds for 4 minutes using a Biotek Synergy H1 microplate reader. The rate of fluorescence reduction was measured to monitor the conversion of NADH to NAD+. […]

[4] abbreviates: ATCC30107, trophozoites, 48 hours.

Sequence of NfENO (A0A6A5BXC3 entry or part of it): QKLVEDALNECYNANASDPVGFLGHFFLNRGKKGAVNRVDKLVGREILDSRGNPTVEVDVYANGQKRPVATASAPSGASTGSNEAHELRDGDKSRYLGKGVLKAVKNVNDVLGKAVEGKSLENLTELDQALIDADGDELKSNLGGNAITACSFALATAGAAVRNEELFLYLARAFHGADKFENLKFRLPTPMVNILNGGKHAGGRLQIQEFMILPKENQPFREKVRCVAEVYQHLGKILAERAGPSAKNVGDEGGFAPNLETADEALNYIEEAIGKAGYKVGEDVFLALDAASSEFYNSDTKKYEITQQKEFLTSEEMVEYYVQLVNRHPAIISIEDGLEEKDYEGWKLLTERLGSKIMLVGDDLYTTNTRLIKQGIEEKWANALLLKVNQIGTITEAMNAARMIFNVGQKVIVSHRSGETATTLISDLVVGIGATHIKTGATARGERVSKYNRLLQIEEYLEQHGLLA

On to `O=C1C(S(=O)(=O)O)CCCN1O` (stereo not shown) [Compound 4, 1-Hydroxy-2-oxopiperidine-3-sulfonic acid], for which the concentration giving a half-maximal response (EC50) (commonly the concentration at which the effect is half-maximal) in data set [1] (setting [4]) is greater than 25 µM.

For the compound `O=C1[C@@H](P(=O)(O)O)[C@@H]2CCCC[C@H]2CN1O` [Compound 5, ((4S,4aR,8aR)-2-Hydroxy-3-oxodecahydroisoquinolin-4-yl)phosphonic acid], the EC50 in data set [1] (setting [4]) was greater than 25 µM. As to `O=C1C(P(=O)(O)O)c2ccccc2CN1O` (stereo not shown) [Compound 2, (2-Hydroxy-3-oxo-1,2,3,4-tetrahydroisoquinolin-4-yl)phosphonic acid], the EC50 in data set [1] (setting [4]) was greater than 25 µM. In data set [1] (at higher concentrations than 25 μM (100 μM screen), 48 hours), the “activity on N. fowleri growth” value is “modest activity”. Also, in data set [2] (HEK-293 cells), the half-maximal cytotoxic concentration (CC50) (as a rule, the concentration at which the toxic effect on the cells reaches its halfway point) at 48 h is greater than 25 µM. Turning to `O=C1C(P(=O)(O)O)CCCN1CCO` (stereo not shown) [Compound 3, (1-(2-Hydroxyethyl)-2-oxopiperidin-3-yl)phosphonic acid], in data set [1] (ATCC30107, 48 h), the concentration for a half-maximal effect (EC50) was greater than 25 µM. For `O=C1SCCCC1P(=O)(O)O` (stereo not shown) [Compound 7, (2-Oxotetrahydro-2H-thiopyran-3-yl)phosphonic acid], in data set [3], the “effect on NfENO” value is on record as “no effect”. In data set [1] (ATCC30107, 48 h), the concentration giving a half-maximal response (EC50) was greater than 25 µM. In the case of `O=C1NCCCC1P(=O)(O)O` (stereo not shown) [Compound 6, (2-Oxopiperidin-3-yl)phosphonic acid], in data set [3], the “effect on NfENO” value was “no effect”. Also, the EC50 in data set [1] (ATCC30107, 48 h) is greater than 25 µM. Turning to `NN1CCCC(P(=O)(O)O)C1=O` (stereo not shown) [Compound 1, (1-Amino-2-oxopiperidin-3-yl)phosphonic acid], the half-maximal effective concentration (EC50) in data set [1] (ATCC30107, 48 h) was greater than 25 µM. `O=C1C(P(=O)(O)O)CCCN1O` (stereo not shown) [HEX, (1-hydroxy-2-oxopiperidin-3-yl)phosphonic acid, reference compound]: the EC50 in data set [1] (ATCC30107, 48 h) was found to be 0.21 ± 0.02 µM. Moreover, the CC50 at 48 h in data set [2] is greater than 100 µM.
